Test results: patent US8822479B2, “6-cyclylmethyl-and 6-alkylmethyl-substituted pyrazolepyrimidines” (Boehringer Ingelheim International GmbH, priority 2003, dated 2014)
Where a name gives a salt, the structure may show the parent alone.

Legend:
[1] = molecular target: human PDE9A (Homo sapiens (Human), UniProt O76083); conditions: concentrations of up to 100 μM; cited from earlier work
[2] = molecular target: Murine PDE9A (Mus musculus (Mouse), UniProt O70628); conditions: concentrations below 200 μM; cited from earlier work
Chain of Murine PDE9A (O70628 whole entry): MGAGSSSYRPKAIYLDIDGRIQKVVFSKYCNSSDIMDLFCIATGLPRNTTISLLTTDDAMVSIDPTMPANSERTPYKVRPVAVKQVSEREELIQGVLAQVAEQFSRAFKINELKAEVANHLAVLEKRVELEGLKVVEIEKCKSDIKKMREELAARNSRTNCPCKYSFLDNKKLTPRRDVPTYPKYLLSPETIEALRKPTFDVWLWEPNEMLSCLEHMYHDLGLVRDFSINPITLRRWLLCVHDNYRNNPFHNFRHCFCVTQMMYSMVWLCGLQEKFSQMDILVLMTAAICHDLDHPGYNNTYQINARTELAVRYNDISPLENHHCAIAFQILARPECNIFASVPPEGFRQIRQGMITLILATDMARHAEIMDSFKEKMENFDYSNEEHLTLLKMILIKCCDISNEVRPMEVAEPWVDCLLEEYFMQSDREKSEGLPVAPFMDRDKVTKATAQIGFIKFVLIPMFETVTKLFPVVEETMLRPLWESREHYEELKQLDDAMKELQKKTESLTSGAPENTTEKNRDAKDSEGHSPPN

Chain of human PDE9A (O76083 whole entry): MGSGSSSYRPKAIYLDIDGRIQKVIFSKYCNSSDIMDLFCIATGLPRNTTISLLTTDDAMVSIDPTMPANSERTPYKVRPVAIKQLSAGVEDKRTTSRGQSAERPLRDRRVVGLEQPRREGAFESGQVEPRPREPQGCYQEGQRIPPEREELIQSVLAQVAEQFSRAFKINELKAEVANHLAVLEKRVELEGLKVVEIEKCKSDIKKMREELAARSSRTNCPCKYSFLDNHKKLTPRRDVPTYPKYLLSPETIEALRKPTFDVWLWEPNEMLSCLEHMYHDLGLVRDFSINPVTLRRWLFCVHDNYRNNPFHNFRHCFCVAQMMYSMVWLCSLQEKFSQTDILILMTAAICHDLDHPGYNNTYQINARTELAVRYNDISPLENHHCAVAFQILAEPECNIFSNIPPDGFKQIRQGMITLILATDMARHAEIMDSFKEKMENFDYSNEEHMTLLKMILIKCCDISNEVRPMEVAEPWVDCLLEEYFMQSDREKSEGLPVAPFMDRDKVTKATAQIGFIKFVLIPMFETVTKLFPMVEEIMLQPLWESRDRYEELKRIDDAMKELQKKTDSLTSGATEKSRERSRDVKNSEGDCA

| Compound | melting point [°C] | also measured |
| --- | --- | --- |
| Cc1ccncc1-n1ncc2c(=O)[nH]c(CC3CCCCC3)nc21 (as salt: sodium) [Example 43, 6-Cyclohexylmethyl-1-(4-methylpyridin-3-yl)-1,5-dihydro-4H-pyrazolo[3,4-d]pyrimidin-4-one] | 206 |  |
| CCC(C)Cc1nc2c(cnn2-c2ccccc2C)c(=O)[nH]1 (racemic) (as salt: sodium) [Example 35, 6-(2-Methylbutyl)-1-(2-methylphenyl)-1,5-dihydro-4H-pyrazolo[3,4-d]pyrimidin-4-one] | 132 |  |
| OCCN(CCO)c1nc(N2CCCCC2)c2nc(N(CCO)CCO)nc(N3CCCCC3)c2n1 [dipyridamole] |  | inhibition on the isolated enzyme [1]: no inhibition |
| CCOC(=O)C1=C[C@]2(CC)CCCN3CCc4c(n1c1ccccc41)[C@@H]32 [vinpocetine] |  | inhibition on the isolated enzyme [1]: no inhibition |
| COc1ccc(C2CNC(=O)C2)cc1OC1CCCC1 (stereo not shown) [rolipram] |  | inhibition on the isolated enzyme [1]: no inhibition |
| CCC(C)Cc1nc2c(cnn2-c2cnccc2C)c(=O)[nH]1 (racemic) (as salt: sodium) [Example 39, 6-(2-Methylbutyl)-1-(4-methylpyridin-3-yl)-1,5-dihydro-4H-pyrazolo[3,4-d]pyrimidin-4-one] | 149 |  |
| CC(C)Cn1c(=O)n(C)c(=O)c2[nH]cnc21 [IBMX] |  | inhibition of murine PDE9A [2]: not inhibited; inhibition on the isolated enzyme [1]: no inhibition |
| CC(C)Cc1nc2c(cnn2-c2ccccc2Cl)c(=O)[nH]1 (as salt: sodium) [Example 40, 1-(2-Chlorophenyl)-6-(2-methylpropyl)-1,5-dihydro-4H-pyrazolo[3,4-d]pyrimidin-4-one] | 204 |  |
| CCC(CC)Cc1nc2c(cnn2-c2cnccc2C)c(=O)[nH]1 (as salt: sodium) [Example 41, 6-(2-Ethylbutyl)-1-(4-methylpyridin-3-yl)-1,5-dihydro-4H-pyrazolo[3,4-d]pyrimidin-4-one] | 143 |  |
| Cc1ccncc1-n1ncc2c(=O)[nH]c(CC3CCCC3)nc21 (as salt: sodium) | 206 |  |
| CC(=O)Nc1ccc(-c2c[nH]c(=O)cn2)cc1 [SKF94120] |  | inhibition on the isolated enzyme [1]: no inhibition |

Further lines, with some results ahead:

| melting point [°C] | Compound | also measured |
| --- | --- | --- |
| 239 | O=c1[nH]c(CC2C=CCC2)nc2c1cnn2-c1ccccn1 (stereo not shown) (as salt: sodium) [Example 17, 6-(2-Cyclopenten-1-ylmethyl)-1-(2-pyridinyl)-1,5-dihydro-4H-pyrazolo[3,4-d]pyrimidin-4-one] |  |
| 169 | Cc1ccccc1-n1ncc2c(=O)[nH]c(CC3CCCCC3)nc21 (as salt: sodium) [Example 10, 6-Cyclohexylmethyl-1-(2-methylphenyl)-1,5-dihydro-4H-pyrazolo[3,4-d]pyrimidin-4-one] |  |
| 153 | O=c1[nH]c(CC2C=CCC2)nc2c1cnn2-c1ccccc1C(F)(F)F (stereo not shown) (as salt: sodium) [Example 14, 6-(2-Cyclopenten-1-ylmethyl)-1-[2-(trifluoromethyl)phenyl]-1,5-dihydro-4H-pyrazolo[3,4-d]pyrimidin-4-one] |  |
| 150 | O=c1[nH]c(CC2C=CCC2)nc2c1cnn2-c1ccccc1Cl (stereo not shown) (as salt: sodium) [Example 16, 6-(2-Cyclopenten-1-ylmethyl)-1-(2-chlorophenyl)-1,5-dihydro-4H-pyrazolo[3,4-d]pyrimidin-4-one] |  |
| 146 | CCc1ccccc1-n1ncc2c(=O)[nH]c(CC3C=CCC3)nc21 (stereo not shown) (as salt: sodium) [Example 8, 6-(2-Cyclopenten-1-ylmethyl)-1-(2-ethylphenyl)-1,5-dihydro-4H-pyrazolo[3,4-d]pyrimidin-4-one] |  |
| 160 | Cc1ccccc1-n1ncc2c(=O)[nH]c(CC(C)C(F)(F)F)nc21 (racemic) (as salt: sodium) [Example 36, 1-(2-Methylphenyl)-6-(3,3,3-trifluoro-2-methylpropyl)-1,5-dihydro-4H-pyrazolo[3,4-d]pyrimidin-4-one] |  |
| 163 | O=c1[nH]c(CC2C=CCC2)nc2c1cnn2-c1ccccc1F (stereo not shown) (as salt: sodium) [Example 15, 6-(2-Cyclopenten-1-ylmethyl)-1-(2-fluorophenyl)-1,5-dihydro-4H-pyrazolo[3,4-d]pyrimidin-4-one] |  |
| 181 | Cc1ccccc1-n1ncc2c(=O)[nH]c(CC3CCCC3)nc21 (as salt: sodium) |  |
| 182 | COc1ccccc1-n1ncc2c(=O)[nH]c(CC3C=CCC3)nc21 (stereo not shown) (as salt: sodium) [Example 18, 6-(2-Cyclopenten-1-ylmethyl)-1-(2-methoxyphenyl)-1,5-dihydro-4H-pyrazolo[3,4-d]pyrimidin-4-one] |  |
| 179 | Cc1ccccc1-n1ncc2c(=O)[nH]c(CC3C=CCC3)nc21 (stereo not shown) (as salt: sodium) [Example 9, 6-(2-Cyclopenten-1-ylmethyl)-1-(2-methylphenyl)-1,5-dihydro-4H-pyrazolo[3,4-d]pyrimidin-4-one] |  |
